Measurements from ChEMBL document CHEMBL5665443, “Enzyme Inhibitor Single Concentration assay results for EUbOPEN Chemogenomics Library” (2024).
Each block holds one compound with its values, some of them ahead of it.

Legend:
[1] = molecular target: DNA-3-methyladenine glycosylase (Homo sapiens) (UniProt P29372); conditions: Compound Concentration 10.0 uM, Hit No;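 further: enzyme assay where MPG cuts a quenched duplex DNA oligonucleotide probe, paired with APE1 for strand incision and turnover, read as fluorescence at 594 nm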
Description: Inhibition of MPG by quantifying inhibition of MPG-mediated cleavage and dissociation of quenched duplex DNA oligonucleotides, measured as fluorescence at 594 nm. To generate a functional strand incision and increase turn-over this assay is coupled to APE1.

[2] = molecular target: Endonuclease 8-like 1 (Homo sapiens) (UniProt Q96FI4); conditions: Hit No;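 further: fluorescence at 594 nm from quenched duplex DNA oligonucleotides released by NEIL1 cleavage and strand separation, reported as reduction of this enzyme activity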
Description: Inhibition of NEIL1 by quantifying inhibition of NEIL1-mediated cleavage and dissociation of quenched duplex DNA oligonucleotides, measured as fluorescence at 594 nm.

[3] = molecular target: T1, Endonuclease 8-like 2 (Homo sapiens) (UniProt Q969S2); conditions: Compound Concentration 10.0 uM, Hit No;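 further: fluorescence at 594 nm reports NEIL2 cutting and release of a quenched double-stranded DNA oligo substrate, reduced signal read as inhibition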
T1 sequence (whole entry): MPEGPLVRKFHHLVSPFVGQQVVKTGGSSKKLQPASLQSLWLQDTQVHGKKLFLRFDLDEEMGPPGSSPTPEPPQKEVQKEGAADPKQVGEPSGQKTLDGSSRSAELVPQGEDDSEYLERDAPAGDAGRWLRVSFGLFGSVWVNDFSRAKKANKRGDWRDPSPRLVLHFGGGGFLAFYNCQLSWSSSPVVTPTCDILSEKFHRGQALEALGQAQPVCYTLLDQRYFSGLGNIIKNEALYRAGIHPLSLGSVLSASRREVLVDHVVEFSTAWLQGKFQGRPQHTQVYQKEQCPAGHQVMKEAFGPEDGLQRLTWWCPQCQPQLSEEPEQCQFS
Description: Inhibition of NEIL2 by quantifying inhibition of NEIL2-mediated cleavage and dissociation of quenched duplex DNA oligonucleotides, measured as fluorescence at 594 nm.

[4] = molecular target: N-glycosylase/DNA lyase (Homo sapiens) (UniProt O15527); conditions: Compound Concentration 10.0 uM, Hit No;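 further: OGG1 cleavage of a quenched duplex DNA oligonucleotide, coupled to APE1 for strand incision, read as fluorescence at 594 nm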
Description: Inhibition of OGG1 by quantifying inhibition of OGG1-mediated cleavage and dissociation of quenched duplex DNA oligonucleotides, measured as fluorescence at 594 nm. To generate a functional strand incision and increase turn-over this assay is coupled to APE1.

[5] = molecular target: T2, Single-strand selective monofunctional uracil DNA glycosylase (Homo sapiens) (UniProt Q53HV7); conditions: Hit No;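 further: enzymatic SMUG1 assay coupled with APE1, reading fluorescence at 594 nm released when a quenched double-stranded DNA oligonucleotide substrate is cleaved and separated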
T2 sequence (whole entry): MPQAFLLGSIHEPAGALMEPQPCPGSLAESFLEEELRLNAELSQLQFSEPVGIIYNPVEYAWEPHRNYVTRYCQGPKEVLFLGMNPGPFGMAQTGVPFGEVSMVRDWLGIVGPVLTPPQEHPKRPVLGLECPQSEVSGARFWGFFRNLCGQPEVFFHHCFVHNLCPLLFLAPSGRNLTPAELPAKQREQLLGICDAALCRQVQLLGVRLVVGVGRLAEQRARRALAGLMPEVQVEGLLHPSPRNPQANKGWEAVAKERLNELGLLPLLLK
Description: Inhibition of SMUG1 by quantifying inhibition of SMUG1-mediated cleavage and dissociation of quenched duplex DNA oligonucleotides, measured as fluorescence at 594 nm. To generate a functional strand incision and increase turn-over this assay is coupled to APE1.

[6] = molecular target: G/T mismatch-specific thymine DNA glycosylase (Homo sapiens) (UniProt Q13569); conditions: Hit No;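 further: human TDG cleavage of quenched duplex DNA oligonucleotides coupled to APE1, strand release read as fluorescence at 594 nm, inhibition of TDG activity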
Description: Inhibition of TDG by quantifying inhibition of TDG-mediated cleavage and dissociation of quenched duplex DNA oligonucleotides, measured as fluorescence at 594 nm. To generate a functional strand incision and increase turn-over this assay is coupled to APE1.

[7] = molecular target: Uracil-DNA glycosylase (Homo sapiens) (UniProt P13051); conditions: Hit No;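 further: UNG excision on a quenched double-stranded DNA oligo probe, with APE1 added for strand incision and turnover, read as fluorescence at 594 nm as strands separate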
Description: Inhibition of UNG by quantifying inhibition of UNG-mediated cleavage and dissociation of quenched duplex DNA oligonucleotides, measured as fluorescence at 594 nm. To generate a functional strand incision and increase turn-over this assay is coupled to APE1.

[8] = molecular target: Methyl-CpG-binding domain protein 4 (Homo sapiens) (UniProt O95243); conditions: Hit No;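 further: MBD4 activity read as fluorescence at 594 nm from cleavage and release of a quenched duplex DNA oligonucleotide, with APE1 coupled to incise the strand and raise turnover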
Description: Inhibition of MBD4 by quantifying inhibition of MBD4-mediated cleavage and dissociation of quenched duplex DNA oligonucleotides, measured as fluorescence at 594 nm. To generate a functional strand incision and increase turn-over this assay is coupled to APE1.

[9] = molecular target: T3, Adenine DNA glycosylase (Homo sapiens) (UniProt Q9UIF7); conditions: Compound Concentration 10.0 uM, Hit No;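 further: human MUTYH activity read as 594 nm fluorescence from cleavage and release of a quenched DNA duplex, coupled with APE1 for strand incision, lower signal meaning inhibition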
T3 sequence (whole entry): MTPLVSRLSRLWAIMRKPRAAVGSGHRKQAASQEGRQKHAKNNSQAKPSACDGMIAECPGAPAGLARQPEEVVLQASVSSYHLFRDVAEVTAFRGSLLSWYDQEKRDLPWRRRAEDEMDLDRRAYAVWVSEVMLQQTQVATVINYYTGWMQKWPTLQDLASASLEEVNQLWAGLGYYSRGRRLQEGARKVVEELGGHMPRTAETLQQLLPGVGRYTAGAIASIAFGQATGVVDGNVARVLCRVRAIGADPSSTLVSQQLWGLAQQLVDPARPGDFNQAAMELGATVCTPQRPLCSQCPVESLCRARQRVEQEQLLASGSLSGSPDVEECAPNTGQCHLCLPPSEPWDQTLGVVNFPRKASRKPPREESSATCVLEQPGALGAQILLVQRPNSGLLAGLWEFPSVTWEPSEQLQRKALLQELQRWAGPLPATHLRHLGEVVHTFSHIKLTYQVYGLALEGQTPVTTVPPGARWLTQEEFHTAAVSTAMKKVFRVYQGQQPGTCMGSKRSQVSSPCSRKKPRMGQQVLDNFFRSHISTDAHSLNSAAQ
Description: Inhibition of MUTYH by quantifying inhibition of MUTYH-mediated cleavage and dissociation of quenched duplex DNA oligonucleotides, measured as fluorescence at 594 nm. To generate a functional strand incision and increase turn-over this assay is coupled to APE1.

[10] = molecular target: T4, Endonuclease III-like protein 1 (Homo sapiens) (UniProt P78549); conditions: Hit No;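 further: enzyme assay tracking NTHL1 cutting and release of a quenched double-stranded DNA oligo substrate, read as fluorescence at 594 nm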
T4 sequence (whole entry): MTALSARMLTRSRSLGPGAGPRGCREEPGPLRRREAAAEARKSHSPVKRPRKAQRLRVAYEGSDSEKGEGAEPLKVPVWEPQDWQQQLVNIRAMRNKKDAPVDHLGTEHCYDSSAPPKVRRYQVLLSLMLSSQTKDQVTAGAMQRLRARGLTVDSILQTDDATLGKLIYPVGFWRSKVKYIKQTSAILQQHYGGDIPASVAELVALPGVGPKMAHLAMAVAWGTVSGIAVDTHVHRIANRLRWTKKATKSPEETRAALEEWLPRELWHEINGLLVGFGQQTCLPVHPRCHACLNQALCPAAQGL
Description: Inhibition of NTHL1 by quantifying inhibition of NTHL1-mediated cleavage and dissociation of quenched duplex DNA oligonucleotides, measured as fluorescence at 594 nm.

Chain of Methyl-CpG-binding domain protein 4 (Homo sapiens) (O95243 whole entry, the tested form may be a part): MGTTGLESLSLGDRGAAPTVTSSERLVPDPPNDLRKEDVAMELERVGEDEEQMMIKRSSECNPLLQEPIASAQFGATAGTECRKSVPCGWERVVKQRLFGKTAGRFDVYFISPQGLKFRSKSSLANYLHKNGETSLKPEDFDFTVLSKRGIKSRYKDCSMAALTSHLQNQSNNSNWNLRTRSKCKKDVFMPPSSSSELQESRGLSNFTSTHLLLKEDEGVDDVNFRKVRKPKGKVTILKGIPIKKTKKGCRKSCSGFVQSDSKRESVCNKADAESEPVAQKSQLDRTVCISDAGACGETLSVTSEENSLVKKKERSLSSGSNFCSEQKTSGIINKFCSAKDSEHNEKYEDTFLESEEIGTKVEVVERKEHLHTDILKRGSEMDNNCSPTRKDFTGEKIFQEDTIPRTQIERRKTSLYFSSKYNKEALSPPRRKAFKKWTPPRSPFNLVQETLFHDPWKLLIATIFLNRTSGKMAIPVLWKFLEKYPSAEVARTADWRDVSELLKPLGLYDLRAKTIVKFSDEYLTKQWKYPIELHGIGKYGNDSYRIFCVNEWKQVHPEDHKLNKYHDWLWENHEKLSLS
Chain of Endonuclease 8-like 1 (Homo sapiens) (Q96FI4 whole entry): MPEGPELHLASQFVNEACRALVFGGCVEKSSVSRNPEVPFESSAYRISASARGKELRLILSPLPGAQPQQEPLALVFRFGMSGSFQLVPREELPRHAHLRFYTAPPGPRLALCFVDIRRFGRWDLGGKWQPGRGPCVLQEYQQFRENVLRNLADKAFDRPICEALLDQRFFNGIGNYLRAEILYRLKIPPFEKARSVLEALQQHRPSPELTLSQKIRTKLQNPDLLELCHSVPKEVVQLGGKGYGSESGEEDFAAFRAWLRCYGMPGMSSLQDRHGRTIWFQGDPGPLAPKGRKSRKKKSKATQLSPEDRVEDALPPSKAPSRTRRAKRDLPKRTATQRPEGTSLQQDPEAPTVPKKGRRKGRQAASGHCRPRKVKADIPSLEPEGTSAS
Chain of N-glycosylase/DNA lyase (Homo sapiens) (O15527 whole entry): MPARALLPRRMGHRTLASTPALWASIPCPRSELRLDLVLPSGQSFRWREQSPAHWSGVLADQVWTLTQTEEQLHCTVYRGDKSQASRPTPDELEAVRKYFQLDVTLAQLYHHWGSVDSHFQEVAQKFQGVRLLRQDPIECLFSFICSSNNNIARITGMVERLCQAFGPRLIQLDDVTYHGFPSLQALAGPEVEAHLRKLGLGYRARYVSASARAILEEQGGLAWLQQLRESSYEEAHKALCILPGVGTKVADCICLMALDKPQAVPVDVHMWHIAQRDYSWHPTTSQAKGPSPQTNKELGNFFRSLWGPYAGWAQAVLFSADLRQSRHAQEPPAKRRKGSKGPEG
Chain of Uracil-DNA glycosylase (Homo sapiens) (P13051 whole entry, the tested form may be a part): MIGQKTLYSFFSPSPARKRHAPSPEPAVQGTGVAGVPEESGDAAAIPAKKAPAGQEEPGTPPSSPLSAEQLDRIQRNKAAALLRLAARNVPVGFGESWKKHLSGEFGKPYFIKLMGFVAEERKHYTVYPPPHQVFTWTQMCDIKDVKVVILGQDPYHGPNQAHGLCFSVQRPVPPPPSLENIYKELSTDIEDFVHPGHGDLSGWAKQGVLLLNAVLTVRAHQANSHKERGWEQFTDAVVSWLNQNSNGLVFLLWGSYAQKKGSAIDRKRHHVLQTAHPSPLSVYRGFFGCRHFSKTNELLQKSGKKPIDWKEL
Chain of DNA-3-methyladenine glycosylase (Homo sapiens) (P29372 whole entry): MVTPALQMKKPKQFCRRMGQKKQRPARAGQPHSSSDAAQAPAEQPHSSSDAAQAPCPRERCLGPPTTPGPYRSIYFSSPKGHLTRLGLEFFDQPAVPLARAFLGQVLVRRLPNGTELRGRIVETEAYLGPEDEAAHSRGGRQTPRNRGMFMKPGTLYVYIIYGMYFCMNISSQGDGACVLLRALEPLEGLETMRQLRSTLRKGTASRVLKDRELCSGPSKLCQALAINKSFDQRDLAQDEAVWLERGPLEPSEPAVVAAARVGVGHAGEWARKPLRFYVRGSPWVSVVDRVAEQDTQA
Chain of G/T mismatch-specific thymine DNA glycosylase (Homo sapiens) (Q13569 whole entry): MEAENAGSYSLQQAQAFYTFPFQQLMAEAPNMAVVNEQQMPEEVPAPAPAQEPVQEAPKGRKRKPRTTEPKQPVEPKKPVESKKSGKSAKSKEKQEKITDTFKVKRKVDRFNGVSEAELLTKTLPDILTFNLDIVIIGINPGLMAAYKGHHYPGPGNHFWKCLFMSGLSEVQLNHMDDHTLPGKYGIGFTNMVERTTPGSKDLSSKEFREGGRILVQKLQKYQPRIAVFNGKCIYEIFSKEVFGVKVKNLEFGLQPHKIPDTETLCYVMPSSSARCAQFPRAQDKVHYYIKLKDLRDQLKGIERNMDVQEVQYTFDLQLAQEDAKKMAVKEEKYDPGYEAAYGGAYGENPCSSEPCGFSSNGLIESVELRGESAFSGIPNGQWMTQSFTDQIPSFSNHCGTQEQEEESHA

Structure (SMILES): CCOc1ccc(Cc2nc3cc(C(=O)N(CC)CC)ccc3n2CC2CCCCC2)cc1
inhibition [1]: -2.6% | inhibition ([2]; Compound Concentration 10.0 uM): 2.91% | inhibition [3]: 4.01% | inhibition [4]: 9.81% | inhibition ([5]; Compound Concentration 10.0 uM): 2.19% | inhibition ([6]; Compound Concentration 10.0 uM): 2.76% | inhibition ([7]; Compound Concentration 10.0 uM): -9.77%

Structure (SMILES): CC(C)c1cc(-c2ccc(F)c3ccccc23)nc(N)n1
inhibition [1]: -4.83% | inhibition ([2]; Compound Concentration 10.0 uM): 5.58% | inhibition [3]: 7.25% | inhibition [4]: 2.18% | inhibition ([5]; Compound Concentration 10.0 uM): -9.82% | inhibition ([6]; Compound Concentration 10.0 uM): -7.89%

Structure (SMILES): CC(C)(O)CCn1c(=O)n(C(=O)N[C@H](C(N)=O)C(C)(C)C)c2ccccc21
inhibition [1]: -4.33% | inhibition ([2]; Compound Concentration 10.0 uM): 2.61% | inhibition [3]: 1.76% | inhibition [4]: -0.203% | inhibition ([5]; Compound Concentration 10.0 uM): -3.57% | inhibition ([6]; Compound Concentration 10.0 uM): 10.8% | inhibition ([7]; Compound Concentration 10.0 uM): -9.98%

Structure (SMILES): COC(=O)[C@H]1[C@H]2C[C@H]3c4[nH]c5ccccc5c4CCN3C[C@H]2CC[C@@H]1O
inhibition [1]: 14.5% | inhibition ([2]; Compound Concentration 10.0 uM): 2.02% | inhibition [3]: 9.75% | inhibition [4]: -6.57% | inhibition ([6]; Compound Concentration 10.0 uM): 5.99%

Structure (SMILES): COc1ccccc1-c1cc(Nc2cccc(CS(N)(=O)=O)c2)ncn1
inhibition ([8]; Compound Concentration 10.0 uM): -4.72% | inhibition [9]: 4.56% | inhibition ([2]; Compound Concentration 10.0 uM): -4.75% | inhibition [3]: 4% | inhibition ([10]; Compound Concentration 10.0 uM): 7.06% | inhibition [4]: 3.23% | inhibition ([5]; Compound Concentration 10.0 uM): 19.3% | inhibition ([6]; Compound Concentration 10.0 uM): 35.8% | inhibition ([7]; Compound Concentration 10.0 uM): 3.59%

Structure (SMILES): C=CC(=O)Nc1ccc2[nH]c(=O)n(C3CCN(Cc4ccc(-c5nc6cc[nH]c(=O)c6cc5-c5ccccc5)cc4)CC3)c2c1
inhibition ([8]; Compound Concentration 10.0 uM): 24% | inhibition [9]: 23.4% | inhibition ([2]; Compound Concentration 10.0 uM): 3.12% | inhibition [3]: 4.67% | inhibition ([10]; Compound Concentration 10.0 uM): 2.5% | inhibition [4]: 49.4% | inhibition ([5]; Compound Concentration 10.0 uM): 25.8% | inhibition ([6]; Compound Concentration 10.0 uM): 49% | inhibition ([7]; Compound Concentration 10.0 uM): 4.17%

Results, then the compound that gave them:

inhibition [1]: -3.95% | inhibition [3]: -8.22% | inhibition [4]: -8.25% | inhibition ([6]; Compound Concentration 10.0 uM): -6.05%
Structure (SMILES): COc1ccncc1C(=O)NC(=O)Nc1ccc(-c2ccccc2)c(C(F)(F)F)c1

inhibition [1]: 6.14% | inhibition ([2]; Compound Concentration 10.0 uM): 7.57% | inhibition [4]: -6.45% | inhibition ([5]; Compound Concentration 10.0 uM): -2.78% | inhibition ([6]; Compound Concentration 10.0 uM): 1.58% | inhibition ([7]; Compound Concentration 10.0 uM): -4.03%
Structure (SMILES): CSc1ccccc1N1CCN(CCCCCC(=O)NC2CCCc3ccccc32)CC1 (stereo unspecified)

inhibition [1]: -1.59% | inhibition ([2]; Compound Concentration 10.0 uM): 0.834% | inhibition [3]: -5.22% | inhibition [4]: -1.28% | inhibition ([5]; Compound Concentration 10.0 uM): -6.62% | inhibition ([6]; Compound Concentration 10.0 uM): 16.4%
Structure (SMILES): Cc1csc2c(N[C@@H](C)CN3CCN(S(=O)(=O)c4ccc(Cl)c(Cl)c4)CC3)ncnc12

inhibition [1]: -2.4% | inhibition ([2]; Compound Concentration 10.0 uM): -1.39% | inhibition [3]: -9.97% | inhibition [4]: -2.46% | inhibition ([6]; Compound Concentration 10.0 uM): -4.53%
Structure (SMILES): O=c1ccn([C@@H]2O[C@H](COP(=O)(O)OP(=O)(O)OP(=O)(O)O)[C@@H](O)[C@H]2O)c(=O)[nH]1

inhibition [1]: 11.2% | inhibition ([2]; Compound Concentration 10.0 uM): 1.28% | inhibition [3]: 2.51% | inhibition ([6]; Compound Concentration 10.0 uM): -0.888%
Structure (SMILES): Cn1cc(C(=O)OCC2CCN(CCNS(C)(=O)=O)CC2)c2ccccc21

inhibition ([8]; Compound Concentration 1.0 uM): 54.1% | inhibition ([8]; Compound Concentration 10.0 uM): 57% | inhibition [9]: -2.18% | inhibition ([2]; Compound Concentration 1.0 uM): -4.09% | inhibition ([2]; Compound Concentration 10.0 uM): -6.35% | inhibition [3]: 3.85% | inhibition ([10]; Compound Concentration 1.0 uM): -4.79% | inhibition [4]: 4.46% | inhibition ([5]; Compound Concentration 1.0 uM): 10.9% | inhibition ([5]; Compound Concentration 10.0 uM): 13% | inhibition ([6]; Compound Concentration 1.0 uM): 39% | inhibition ([6]; Compound Concentration 10.0 uM): 97.1% | inhibition ([7]; Compound Concentration 1.0 uM): 0.477% | inhibition ([7]; Compound Concentration 10.0 uM): 2.87%
Structure (SMILES): COc1ccccc1Nc1nc(-c2nn(Cc3c(F)cc(OCCCO)cc3F)c3ccccc23)ncc1OC

inhibition ([8]; Compound Concentration 10.0 uM): -6.01% | inhibition [9]: 8.44% | inhibition ([2]; Compound Concentration 10.0 uM): 5.29% | inhibition [3]: 8.58% | inhibition ([10]; Compound Concentration 10.0 uM): -4.1% | inhibition [4]: 2.35% | inhibition ([5]; Compound Concentration 10.0 uM): 15.1% | inhibition ([6]; Compound Concentration 10.0 uM): 48.3% | inhibition ([7]; Compound Concentration 10.0 uM): 4.06%
Structure (SMILES): O=C(NCCCN1CCOC1=O)c1cnc(NCc2cc(Br)ccc2Br)nc1NC1CCCC1

inhibition [1]: -3.29% | inhibition ([2]; Compound Concentration 10.0 uM): 0.454% | inhibition [3]: -6.46% | inhibition ([5]; Compound Concentration 10.0 uM): -1.14% | inhibition ([6]; Compound Concentration 10.0 uM): 0.0736% | inhibition ([7]; Compound Concentration 10.0 uM): -3.75%
Structure (SMILES): CC(C)Oc1ccc(Cc2ccc(NC3=NCCN3)cc2)cc1

inhibition ([8]; Compound Concentration 10.0 uM): 74.5% | inhibition [9]: 26% | inhibition ([2]; Compound Concentration 10.0 uM): -8.92% | inhibition [3]: -7.12% | inhibition ([10]; Compound Concentration 10.0 uM): 5.29% | inhibition [4]: 44.6% | inhibition ([5]; Compound Concentration 10.0 uM): 26.9% | inhibition ([6]; Compound Concentration 10.0 uM): 50.5% | inhibition ([7]; Compound Concentration 10.0 uM): 3.11%
Structure (SMILES): CCCCCCCN(CCc1ccc(SC(C)(C)C(=O)O)cc1)C(=O)Nc1ccc(F)cc1F
